Results as given in ChEMBL document CHEMBL4507276 (2021).

Assays:
[1] = molecular target: Beta-3 adrenergic receptor (Homo sapiens) (UniProt P13945); conditions: Compound concentration 10.0 uM
[2] = molecular target: Mitogen-activated protein kinase kinase kinase 9 (Homo sapiens) (UniProt P80192); conditions: Compound concentration 1000.0 nM
[3] = molecular target: T1, Activin receptor type-1 (Homo sapiens) (UniProt Q04771); conditions: Compound concentration 1000.0 nM
T1 sequence (whole entry): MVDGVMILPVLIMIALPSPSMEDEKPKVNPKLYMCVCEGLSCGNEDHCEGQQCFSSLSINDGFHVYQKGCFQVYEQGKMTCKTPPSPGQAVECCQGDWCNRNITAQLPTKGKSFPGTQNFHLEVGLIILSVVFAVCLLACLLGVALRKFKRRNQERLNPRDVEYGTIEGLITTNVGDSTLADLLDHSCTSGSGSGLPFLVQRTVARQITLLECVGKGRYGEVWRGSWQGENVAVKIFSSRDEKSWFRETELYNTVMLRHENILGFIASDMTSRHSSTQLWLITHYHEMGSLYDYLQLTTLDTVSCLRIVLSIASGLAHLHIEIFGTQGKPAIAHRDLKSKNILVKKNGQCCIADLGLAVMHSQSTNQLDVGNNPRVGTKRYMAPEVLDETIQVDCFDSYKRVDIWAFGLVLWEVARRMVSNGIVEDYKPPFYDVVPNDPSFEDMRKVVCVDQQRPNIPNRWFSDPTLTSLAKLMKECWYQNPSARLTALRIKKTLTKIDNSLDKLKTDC

[4] = molecular target: T2, Aurora kinase C (Homo sapiens) (UniProt Q9UQB9); conditions: Compound concentration 1000.0 nM
T2 sequence (whole entry): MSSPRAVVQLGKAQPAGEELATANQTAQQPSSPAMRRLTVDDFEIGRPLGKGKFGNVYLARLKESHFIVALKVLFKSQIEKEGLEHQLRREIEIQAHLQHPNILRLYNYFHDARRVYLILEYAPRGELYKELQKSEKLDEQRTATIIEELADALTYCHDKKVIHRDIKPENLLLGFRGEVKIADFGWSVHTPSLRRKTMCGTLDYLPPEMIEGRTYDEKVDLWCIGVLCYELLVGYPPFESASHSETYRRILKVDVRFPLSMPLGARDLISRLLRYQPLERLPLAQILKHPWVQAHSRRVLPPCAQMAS

[5] = molecular target: Serine/threonine-protein kinase PLK4 (Homo sapiens) (UniProt O00444); conditions: Compound concentration 1000.0 nM
[6] = molecular target: Serine/threonine-protein kinase tousled-like 2 (Homo sapiens) (UniProt Q86UE8); conditions: Compound concentration 1000.0 nM
[7] = system: Tyrosine-protein kinase ABL1 (Homo sapiens), P00519 [F317L]; conditions: Compound concentration 1000.0 nM
[8] = molecular target: Mitogen-activated protein kinase 10 (Homo sapiens) (UniProt P53779); conditions: Compound concentration 1000.0 nM
[9] = molecular target: T3, MAP/microtubule affinity-regulating kinase 4 (Homo sapiens) (UniProt Q96L34); conditions: Compound concentration 1000.0 nM
T3 sequence (whole entry): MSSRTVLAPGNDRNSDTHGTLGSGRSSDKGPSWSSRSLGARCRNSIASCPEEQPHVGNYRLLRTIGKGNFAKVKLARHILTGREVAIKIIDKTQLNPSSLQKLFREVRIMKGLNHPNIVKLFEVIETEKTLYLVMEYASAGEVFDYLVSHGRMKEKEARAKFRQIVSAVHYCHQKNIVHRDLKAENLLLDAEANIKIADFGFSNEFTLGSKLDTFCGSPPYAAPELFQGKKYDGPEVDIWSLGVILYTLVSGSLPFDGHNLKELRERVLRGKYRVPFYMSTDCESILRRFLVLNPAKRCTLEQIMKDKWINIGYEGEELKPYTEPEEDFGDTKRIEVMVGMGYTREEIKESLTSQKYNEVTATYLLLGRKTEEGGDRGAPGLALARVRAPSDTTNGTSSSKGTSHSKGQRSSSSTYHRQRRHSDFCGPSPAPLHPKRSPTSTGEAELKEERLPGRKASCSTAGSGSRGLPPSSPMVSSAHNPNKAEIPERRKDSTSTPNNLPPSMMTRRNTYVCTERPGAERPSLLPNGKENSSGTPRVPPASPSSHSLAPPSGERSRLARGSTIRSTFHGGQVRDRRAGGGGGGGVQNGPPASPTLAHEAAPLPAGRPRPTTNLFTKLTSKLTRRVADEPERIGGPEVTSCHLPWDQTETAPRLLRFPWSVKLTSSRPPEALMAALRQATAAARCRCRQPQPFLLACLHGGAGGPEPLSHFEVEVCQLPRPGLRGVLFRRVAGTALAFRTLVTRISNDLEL

[10] = system: Mast/stem cell growth factor receptor Kit (Homo sapiens), P10721 [V559D,T670I]; conditions: Compound concentration 1000.0 nM
[11] = molecular target: Ankyrin repeat and protein kinase domain-containing protein 1 (Homo sapiens) (UniProt Q8NFD2); conditions: Compound concentration 1000.0 nM
[12] = molecular target: SRSF protein kinase 1 (Homo sapiens) (UniProt Q96SB4); conditions: Compound concentration 1000.0 nM
[13] = molecular target: Mitogen-activated protein kinase kinase kinase 1 (Homo sapiens) (UniProt Q13233); conditions: Compound concentration 1000.0 nM
[14] = molecular target: G protein-coupled receptor kinase 4 (Homo sapiens) (UniProt P32298); conditions: Compound concentration 1000.0 nM
[15] = molecular target: Mitogen-activated protein kinase 4 (Homo sapiens) (UniProt P31152); conditions: Compound concentration 1000.0 nM
[16] = system: Hepatocyte growth factor receptor (Homo sapiens), P08581 [Y1235D]; conditions: Compound concentration 1000.0 nM
[17] = molecular target: Protein kinase C eta type (Homo sapiens) (UniProt P24723); conditions: Compound concentration 1000.0 nM
[18] = molecular target: Dual specificity mitogen-activated protein kinase kinase 5 (Homo sapiens) (UniProt Q13163); conditions: Compound concentration 1000.0 nM
[19] = molecular target: Receptor-type tyrosine-protein kinase FLT3 (Homo sapiens) (UniProt P36888); conditions: Compound concentration 1000.0 nM
[20] = molecular target: Serine/threonine-protein kinase NIM1 (Homo sapiens) (UniProt Q8IY84); conditions: Compound concentration 1000.0 nM
[21] = molecular target: Casein kinase I isoform alpha (Homo sapiens) (UniProt P48729); conditions: Compound concentration 1000.0 nM
Chain of Casein kinase I isoform alpha (Homo sapiens) (P48729 2-337 limits assumed): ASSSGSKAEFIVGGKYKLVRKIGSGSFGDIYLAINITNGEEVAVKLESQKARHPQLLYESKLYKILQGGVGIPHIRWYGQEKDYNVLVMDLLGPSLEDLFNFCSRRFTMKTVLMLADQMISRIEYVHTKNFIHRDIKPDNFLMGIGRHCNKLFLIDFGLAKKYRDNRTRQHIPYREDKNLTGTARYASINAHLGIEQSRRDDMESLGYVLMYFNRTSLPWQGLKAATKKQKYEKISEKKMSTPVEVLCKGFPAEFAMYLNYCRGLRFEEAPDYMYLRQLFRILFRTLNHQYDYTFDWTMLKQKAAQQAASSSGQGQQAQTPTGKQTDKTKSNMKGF

Chain of Dual specificity mitogen-activated protein kinase kinase 5 (Homo sapiens) (Q13163 whole entry): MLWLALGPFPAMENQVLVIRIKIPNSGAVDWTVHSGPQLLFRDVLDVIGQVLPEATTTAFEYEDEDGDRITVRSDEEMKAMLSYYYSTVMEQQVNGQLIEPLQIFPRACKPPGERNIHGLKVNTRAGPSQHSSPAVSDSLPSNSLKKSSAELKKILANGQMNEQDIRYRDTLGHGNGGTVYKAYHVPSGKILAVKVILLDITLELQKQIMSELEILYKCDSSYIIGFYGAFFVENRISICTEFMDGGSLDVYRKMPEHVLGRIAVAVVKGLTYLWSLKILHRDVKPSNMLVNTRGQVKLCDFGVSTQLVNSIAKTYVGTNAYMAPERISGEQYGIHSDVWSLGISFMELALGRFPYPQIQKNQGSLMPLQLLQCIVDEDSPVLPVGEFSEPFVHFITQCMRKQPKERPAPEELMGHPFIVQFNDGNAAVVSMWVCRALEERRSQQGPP
Chain of Tyrosine-protein kinase ABL1 (Homo sapiens), P00519 [F317L] (P00519 whole entry F317L): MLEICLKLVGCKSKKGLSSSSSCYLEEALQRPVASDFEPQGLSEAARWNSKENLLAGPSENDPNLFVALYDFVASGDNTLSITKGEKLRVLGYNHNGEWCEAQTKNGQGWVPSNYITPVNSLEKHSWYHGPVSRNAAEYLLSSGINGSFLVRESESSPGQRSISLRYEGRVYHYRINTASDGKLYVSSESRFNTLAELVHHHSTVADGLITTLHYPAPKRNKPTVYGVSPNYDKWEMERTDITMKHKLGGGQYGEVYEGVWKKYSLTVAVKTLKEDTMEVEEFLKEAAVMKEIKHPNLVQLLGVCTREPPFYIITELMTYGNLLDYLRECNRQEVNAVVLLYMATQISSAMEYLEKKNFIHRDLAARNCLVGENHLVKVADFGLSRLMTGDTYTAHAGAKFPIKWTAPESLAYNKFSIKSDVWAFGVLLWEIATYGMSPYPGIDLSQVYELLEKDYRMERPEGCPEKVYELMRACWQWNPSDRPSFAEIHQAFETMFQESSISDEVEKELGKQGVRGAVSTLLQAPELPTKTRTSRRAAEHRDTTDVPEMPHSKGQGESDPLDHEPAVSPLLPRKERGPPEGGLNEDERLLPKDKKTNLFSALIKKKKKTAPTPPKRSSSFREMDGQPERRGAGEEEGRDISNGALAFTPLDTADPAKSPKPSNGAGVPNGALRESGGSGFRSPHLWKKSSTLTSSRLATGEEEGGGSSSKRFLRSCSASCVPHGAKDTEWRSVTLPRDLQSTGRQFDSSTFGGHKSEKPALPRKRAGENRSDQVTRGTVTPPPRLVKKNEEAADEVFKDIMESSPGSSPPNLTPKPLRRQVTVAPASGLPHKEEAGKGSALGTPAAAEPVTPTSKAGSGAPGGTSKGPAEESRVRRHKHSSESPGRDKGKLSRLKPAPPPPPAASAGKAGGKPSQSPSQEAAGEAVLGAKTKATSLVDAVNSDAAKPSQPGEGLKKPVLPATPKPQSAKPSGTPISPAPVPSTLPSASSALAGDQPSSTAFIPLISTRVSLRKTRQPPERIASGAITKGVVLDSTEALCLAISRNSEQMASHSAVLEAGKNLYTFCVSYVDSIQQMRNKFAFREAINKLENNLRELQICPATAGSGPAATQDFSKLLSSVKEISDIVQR
Chain of Serine/threonine-protein kinase PLK4 (Homo sapiens) (O00444 whole entry): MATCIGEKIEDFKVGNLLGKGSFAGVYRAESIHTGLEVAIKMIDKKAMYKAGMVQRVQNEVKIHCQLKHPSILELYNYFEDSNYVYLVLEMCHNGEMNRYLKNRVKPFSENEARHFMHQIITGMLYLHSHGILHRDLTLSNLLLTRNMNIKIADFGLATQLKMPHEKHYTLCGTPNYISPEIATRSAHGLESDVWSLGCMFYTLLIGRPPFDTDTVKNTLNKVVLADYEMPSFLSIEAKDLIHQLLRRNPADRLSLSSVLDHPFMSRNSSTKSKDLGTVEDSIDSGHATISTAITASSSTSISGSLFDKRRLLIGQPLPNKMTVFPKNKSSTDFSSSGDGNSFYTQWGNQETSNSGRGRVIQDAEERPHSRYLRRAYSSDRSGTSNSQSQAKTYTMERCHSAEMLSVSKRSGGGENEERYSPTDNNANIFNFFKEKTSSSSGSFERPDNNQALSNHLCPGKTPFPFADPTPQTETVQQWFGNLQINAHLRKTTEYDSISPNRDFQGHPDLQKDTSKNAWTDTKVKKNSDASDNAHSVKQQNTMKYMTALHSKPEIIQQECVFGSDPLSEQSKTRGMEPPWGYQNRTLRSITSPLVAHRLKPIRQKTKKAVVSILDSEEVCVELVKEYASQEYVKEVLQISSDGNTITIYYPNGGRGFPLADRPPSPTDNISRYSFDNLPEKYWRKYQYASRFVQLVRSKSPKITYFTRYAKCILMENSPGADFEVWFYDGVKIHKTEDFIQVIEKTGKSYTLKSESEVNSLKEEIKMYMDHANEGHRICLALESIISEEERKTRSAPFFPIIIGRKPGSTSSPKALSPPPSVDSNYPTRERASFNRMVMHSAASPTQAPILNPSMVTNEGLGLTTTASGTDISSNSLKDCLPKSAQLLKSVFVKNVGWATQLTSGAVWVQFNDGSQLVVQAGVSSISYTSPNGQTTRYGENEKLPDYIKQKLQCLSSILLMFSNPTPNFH
Chain of Serine/threonine-protein kinase NIM1 (Homo sapiens) (Q8IY84 whole entry, canonical isoform): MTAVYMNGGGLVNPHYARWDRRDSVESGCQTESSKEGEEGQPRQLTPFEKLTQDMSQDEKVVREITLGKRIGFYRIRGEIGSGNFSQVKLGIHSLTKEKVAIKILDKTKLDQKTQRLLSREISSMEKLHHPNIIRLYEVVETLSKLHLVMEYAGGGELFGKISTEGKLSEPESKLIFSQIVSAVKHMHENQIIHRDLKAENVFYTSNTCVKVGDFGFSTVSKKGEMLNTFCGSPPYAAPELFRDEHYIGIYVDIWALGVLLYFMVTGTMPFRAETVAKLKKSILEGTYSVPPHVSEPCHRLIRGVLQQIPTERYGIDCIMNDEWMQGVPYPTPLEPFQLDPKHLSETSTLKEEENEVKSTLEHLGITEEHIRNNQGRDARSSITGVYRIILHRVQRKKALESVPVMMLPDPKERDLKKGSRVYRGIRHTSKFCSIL
Chain of G protein-coupled receptor kinase 4 (Homo sapiens) (P32298 whole entry, looked up): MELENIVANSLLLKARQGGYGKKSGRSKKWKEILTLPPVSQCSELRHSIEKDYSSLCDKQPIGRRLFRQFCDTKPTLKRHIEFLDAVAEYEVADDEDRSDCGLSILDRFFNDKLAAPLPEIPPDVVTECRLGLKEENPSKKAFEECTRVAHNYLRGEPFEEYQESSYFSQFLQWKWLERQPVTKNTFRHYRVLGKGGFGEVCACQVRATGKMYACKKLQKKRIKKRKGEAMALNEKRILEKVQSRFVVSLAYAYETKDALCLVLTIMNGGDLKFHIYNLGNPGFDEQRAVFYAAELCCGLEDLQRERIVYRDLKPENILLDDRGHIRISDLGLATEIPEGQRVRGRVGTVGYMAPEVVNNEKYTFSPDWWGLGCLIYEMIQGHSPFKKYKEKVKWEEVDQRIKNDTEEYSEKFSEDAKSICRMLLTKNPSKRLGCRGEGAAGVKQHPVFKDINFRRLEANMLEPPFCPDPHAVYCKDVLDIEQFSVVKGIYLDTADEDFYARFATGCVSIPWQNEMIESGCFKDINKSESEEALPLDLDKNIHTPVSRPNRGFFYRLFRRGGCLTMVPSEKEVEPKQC
Chain of Mitogen-activated protein kinase kinase kinase 9 (Homo sapiens) (P80192 whole entry, looked up): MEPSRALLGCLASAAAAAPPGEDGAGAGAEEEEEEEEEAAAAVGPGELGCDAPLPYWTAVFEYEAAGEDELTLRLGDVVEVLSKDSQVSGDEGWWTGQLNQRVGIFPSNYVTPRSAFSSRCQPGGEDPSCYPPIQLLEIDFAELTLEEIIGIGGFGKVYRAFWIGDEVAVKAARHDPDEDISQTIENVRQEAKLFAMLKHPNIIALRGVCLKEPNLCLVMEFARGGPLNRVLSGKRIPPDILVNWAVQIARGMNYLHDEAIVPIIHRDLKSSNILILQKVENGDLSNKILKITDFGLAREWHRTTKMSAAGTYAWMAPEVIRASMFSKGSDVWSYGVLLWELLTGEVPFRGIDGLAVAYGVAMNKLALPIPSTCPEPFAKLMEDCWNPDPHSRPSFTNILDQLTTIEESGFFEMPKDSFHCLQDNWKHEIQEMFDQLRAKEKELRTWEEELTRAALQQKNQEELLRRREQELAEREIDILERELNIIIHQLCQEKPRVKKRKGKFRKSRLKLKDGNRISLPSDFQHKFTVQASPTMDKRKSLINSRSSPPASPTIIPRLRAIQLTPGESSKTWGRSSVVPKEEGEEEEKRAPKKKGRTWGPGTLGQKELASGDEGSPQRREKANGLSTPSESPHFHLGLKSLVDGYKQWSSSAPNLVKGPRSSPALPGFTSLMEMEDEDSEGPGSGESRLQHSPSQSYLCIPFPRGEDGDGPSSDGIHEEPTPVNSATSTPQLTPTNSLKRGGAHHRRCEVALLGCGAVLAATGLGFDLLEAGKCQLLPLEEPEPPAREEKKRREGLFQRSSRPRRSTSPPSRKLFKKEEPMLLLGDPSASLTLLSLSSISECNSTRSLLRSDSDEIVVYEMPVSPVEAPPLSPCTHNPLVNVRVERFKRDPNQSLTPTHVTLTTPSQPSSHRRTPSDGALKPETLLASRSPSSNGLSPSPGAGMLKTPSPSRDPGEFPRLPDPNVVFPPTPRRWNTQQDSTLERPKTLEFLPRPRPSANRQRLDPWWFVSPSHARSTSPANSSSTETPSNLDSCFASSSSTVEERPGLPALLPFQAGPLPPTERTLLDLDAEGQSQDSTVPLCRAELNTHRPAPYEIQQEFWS

CN(C)C(=O)Cn1cc(-c2nc(C3(c4ccc(-c5cnc(N)nc5)cc4)CC3)no2)cn1 [BI 0153]
inactive: inhibition [1] 3.06% | residual activity [2] 91% | residual activity [3] 95% | residual activity [4] 100% | residual activity [5] 100% | residual activity [6] 100% | residual activity [7] 85% | residual activity [8] 93% | residual activity [9] 96% | residual activity [10] 100% | residual activity [11] 81% | residual activity [12] 93% | residual activity [13] 77% | residual activity [14] 100% | residual activity [15] 100% | residual activity [16] 98% | residual activity [17] 91% | residual activity [18] 72% | residual activity [19] 81% | residual activity [20] 83% | residual activity [21] 62%

CN(C)C(=O)Cn1cc(-c2nc([C@@](C)(c3ccc(-c4cnc(N)nc4)cc3)C3CC3)no2)cn1 [BI 665915]
inactive: inhibition [1] 9.54% | residual activity [2] 100% | residual activity [3] 84% | residual activity [4] 100% | residual activity [5] 74% | residual activity [6] 100% | residual activity [7] 88% | residual activity [8] 94% | residual activity [9] 95% | residual activity [10] 81% | residual activity [11] 81% | residual activity [12] 100% | residual activity [13] 90% | residual activity [14] 86% | residual activity [15] 88% | residual activity [16] 96% | residual activity [17] 100% | residual activity [18] 62% | residual activity [19] 82% | residual activity [20] 86% | residual activity [21] 100%
